These results are taken from ChEMBL document CHEMBL1201862, “PubChem BioAssay data set” (2004).

Molecules are shown by their SMILES.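 1) Cells in 96-well plates. 2) Compound, 48 h, 5 concentrations. 3) Linear interpolation between surrounding doses. 4) Unreached endpoint = highest concentration. GI50: concentration for 50% inhibition of growth.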 Activity calls are given as the source filed them. Rule as the data show it: active = GI50 up to about 1.1 µM and inactive = higher.

Common to all, as to assay: NCI tumour cell line growth inhibition, 48 h
The test system of assay [1] is PC-3.
Assay [2] concerns SK-MEL-28.
Assay [3] has as its system HCT-116.
In assay [4] the test system is CAKI-1.
The subject of assay [5] is K562.
Assay [6] relates to UO-31.
In assay [7] the test system is HL-60.
Assay [8] deals with RXF 393.
Assay [9] deals with SF-539.
For assay [10], the system named is OVCAR-4.
Assay [11] relates to MDA-MB-231.
Assay [12] concerns U-251.
Assay [13] relates to NCI-H460.
In assay [14] the test system is KM12.
Assay [15] concerns CCRF-CEM.
For assay [16], the system named is OVCAR-3.
For assay [17], the system named is HOP-62.
For assay [18], the system named is SK-MEL-5.
The test system of assay [19] is SK-OV-3.
Assay [20] deals with TK-10.

`Nc1nc(Cl)c(Cl)c(NCC2(O)CCC2)n1`: the GI50 was > 100 µM (inactive) in assay [1]; > 100 µM (inactive) in assay [2]; 57.3 µM (inactive) in assay [3]; 16.1 µM (inactive) in [4]; 24.7 µM (inactive) in assay [5]; 31.2 µM (inactive) in [6]. Moreover, the GI50 in [7] is 44 µM (inactive); in assay [8] it was 38.4 µM (inactive); in [9], > 100 µM (inactive); in [10] it was 19 µM (inactive); in assay [11] it was 74.1 µM (inactive); in [12] it was 92.7 µM (inactive). The GI50 in assay [13] was > 100 µM (inactive); in assay [14] it was > 100 µM (inactive); in assay [15] it was > 100 µM (inactive); in [16], 51.2 µM (inactive); in assay [17], 92.3 µM (inactive); in assay [18], 18.8 µM (inactive). Moreover, the GI50 in [19] was 39.3 µM (inactive); in assay [20] it was > 100 µM (inactive).
Take `CCCCOP(=O)(OCCCC)C(NS(=O)(=O)c1ccccc1)(C(=O)OCC)C(F)(F)F` (stereo not given): the GI50 in assay [1] was 30.1 µM (inactive); in assay [2] it was 34.1 µM (inactive); in assay [3] it was 27.4 µM (inactive); in assay [4], 16.4 µM (inactive); in [5] it was 20.5 µM (inactive); in assay [6], > 100 µM (inactive). Further, the GI50 in assay [7] was 19.3 µM (inactive); in assay [8] it was 26.7 µM (inactive); in assay [9] it was 19.5 µM (inactive); in assay [10], 27.7 µM (inactive); in assay [11], 15.3 µM (inactive); in assay [12], 34.8 µM (inactive). The GI50 in assay [13] is 37.6 µM (inactive); in [14] it was 31 µM (inactive); in assay [15], 27.2 µM (inactive); in assay [16] it was 25.1 µM (inactive); in [17], 22.7 µM (inactive); in [18], 18.1 µM (inactive). Moreover, the results for the GI50 in assay [19] and in assay [20] were 58.5 µM (inactive) and 33.9 µM (inactive), respectively.
As to `COc1ccc(/C(Cl)=C(\C=O)c2cc(OC)c(OC)c(OC)c2)cc1OC`, the GI50 in [1] is 55.1 µM (inactive); in assay [2], 61.8 µM (inactive); in assay [3], 36.6 µM (inactive); in assay [4], 22.9 µM (inactive); in assay [5], 25.7 µM (inactive); in [6], 16.8 µM (inactive). Besides, the GI50 in assay [7] was 5.78 µM (inactive); in assay [8], > 100 µM (inactive); in assay [9] it was 26.2 µM (inactive); in assay [10], 24.3 µM (inactive); in assay [11], 68.5 µM (inactive); in assay [12], 23 µM (inactive). The GI50 was 18.5 µM (inactive) in assay [13]; 24.8 µM (inactive) in [14]; 26.1 µM (inactive) in assay [15]; 27.7 µM (inactive) in assay [16]; 29.5 µM (inactive) in [17]; 14.8 µM (inactive) in assay [18]. The GI50 in assay [19] is 72.4 µM (inactive); in assay [20], 56.6 µM (inactive).
As for `CCOC(=O)Nc1nc(-c2ccccc2)c(C)s1`, the GI50 in assay [1] was > 100 µM (inactive); in assay [2], > 100 µM (inactive); in [3] it was 88.7 µM (inactive); in assay [4], > 100 µM (inactive); in assay [5], 18.3 µM (inactive); in assay [6] it was 60 µM (inactive). Moreover, the GI50 in assay [7] was 11.1 µM (inactive); in [8], > 100 µM (inactive); in assay [9] it was > 100 µM (inactive); in assay [10], 81.5 µM (inactive); in assay [11], > 100 µM (inactive); in assay [12], > 100 µM (inactive). In addition, the GI50 in assay [13] is 64 µM (inactive); in assay [14] it was > 100 µM (inactive); in assay [15], 31.5 µM (inactive); in assay [16], 98.9 µM (inactive); in [17], > 100 µM (inactive); in assay [18], > 100 µM (inactive). For the same molecule, the GI50 in assay [19] and in assay [20] was > 100 µM (inactive) each time.
Turning to `C/C(=N\Nc1nc2ccccc2s1)c1cc(C)ncn1`, the GI50 is 0.612 µM (active) in [1]; 3.09 µM (inactive) in assay [2]; 0.1 µM (active) in [3]; 0.145 µM (active) in assay [4]; 0.129 µM (active) in assay [5]; 0.389 µM (active) in assay [6]. Also, the GI50 in assay [7] was 0.0776 µM (active); in [8], 3.02 µM (inactive); in assay [9], 1.38 µM (inactive); in [10], 1.7 µM (inactive); in assay [11] it was 0.286 µM (active); in [12], 1 µM (active). Also, the GI50 in [13] is 0.426 µM (active); in assay [14] it was 0.767 µM (active); in assay [15], 0.0929 µM (active); in [16] it was 0.408 µM (active); in assay [17] it was 1.34 µM (inactive); in assay [18], 0.459 µM (active). Further, the GI50 in assay [19] was 1.28 µM (inactive); in assay [20] it was 15.3 µM (inactive).
